# Assay results published in patent US12011499B2, “Peptides and compositions for use in cosmetics” (LIPOTRUE, S.L., priority 2020, dated 2024).
# Experiments:
# [1] = tested on: Metalloproteinase-1 (MMP1); experiment: Gene expression modulation in HDFa (RTqPCR), MMP1; type: cell-based, human; conditions: 0.1 mg/ml, 6 hours
# Protocol: (§1) Changes in gene expression levels are represented as a positive or negative fold-change with regard to the basal control (untreated cells). Bars from top to bottom in the y axis refer to: Metalloproteinase-1 (MMP1), Metalloproteinase-3 (MMP3), Fibronectin 1 (FN1), Fibrillin-1 (FBN1) and Versican (VCAN) genes, and x axis refers to fold change vs basal control.
# (§2) Modulation of gene expression by Ac-SEQ ID NO: 3-NH2 peptide (synthesized in accordance with examples 1-3 and 5) on HDFa was evaluated in vitro.
# (§3) Briefly, HDFa cells were seeded in duplicate in 6-well plates at a density of 4×10^5 cells/well and they were maintained at standard culture conditions (37° C., 95% humidity, 5% CO2) for 24 hours. Then, cells were treated with Ac-SEQ ID NO: 3-NH2 peptide at the non-cytotoxic concentration of 0.05 and 0.1 mg/ml for additional 6 hours. Untreated cells were used as basal control. […] RNA was then quantified by nanodrop, adjusted in concentration and processed for retrotranscription to cDNA using a commercially available kit (High-Capacity cDNA Reverse Transcription kit—Thermofisher Scientific, USA). Resulting cDNA was used to perform a RTqPCR (Real Time Quantitative Polymerase Chain Reaction) using taqman technology and a panel of probes designed to target specific genes related to extracellular matrix components and structure.
# facial skin firmness = experiment: Clinical evaluation of facial skin firmness on female volunteers (Dynaskin); type: in vivo, human; conditions: 0.015 mg/ml in cosmetic formulation, two times per day, after 56 days, whole treated group
# Protocol: The effect of Ac-SEQ ID NO: 3-NH2 peptide (synthesized in accordance with examples 1-3 and 5) on facial skin firmness was evaluated on 22 Caucasian female volunteers.
# Briefly, volunteers applied a cosmetic formulation with 3% (m/v) from a stock at 0.05% (m/v) of Ac-SEQ ID NO: 3-NH2 (effective final concentration of Ac-SEQ ID NO: 3-NH2, 0.015 mg/ml) or without (placebo). The application regime was of two times per day during 56 days, on early morning and before bedtime. Cosmetic formulations were applied on either half of clean face in order to compare the effect of placebo and the active on the same volunteer.
# On days 0, 7, 14 and 56, a Dynaskin device was used on each volunteer in order to measure the firmness quality of the skin according to three parameters: volume (mm^3), area (mm^2) and depth (mm). Dynaskin uses an air beam projection onto the cheek area causing a deformation of the skin. This deformation magnitude is measured by means of a specific software collecting data of the above three parameters for each volunteer and on each hemiface.
# Versican (VCAN) = experiment: Gene expression modulation in HDFa (RTqPCR), VCAN; type: cell-based, human; conditions: 0.05 mg/ml, 6 hours
# Protocol: as §1, §2, §3
# fibrillin-1 [2] = experiment: Modulation of fibrillin-1 synthesis on human skin explants (immunostaining); conditions: 0.005 mg/ml in cosmetic formulation, topical on days 0, 2, 4 and 7, explants collected day 9
# Protocol: The effect of Ac-SEQ ID NO: 3-NH2 peptide (synthesized in accordance with examples 1-3 and 5) on fibrillin-1 production was evaluated on human skin explants from a donor.
# Briefly, skin explants were treated with a cosmetic formulation containing 1% (m/v) from a stock at 0.05% (m/v) of Ac-SEQ ID NO: 3-N H2 (effective final concentration of Ac-SEQ ID NO: 3-N H2, 0.005 mg/ml). On days 0, 2, 4 and 7, the tested product was topically applied on the basis of 2 μl per cm^2 of skin explant and spread using a small spatula.
# On day 9, 3 explants from each condition were collected and frozen at −80° C. The frozen samples were cut into 7-μm-thick sections using a Leica CM 3050 cryostat. Sections were then mounted on Superfrost® plus silanized glass slides. The microscopical observations were performed using a Leica DMLB or Olympus BX43 microscope. Pictures were digitized with a numeric DP72 Olympus camera with CellD storing software.
# The nuclei were counterstained using propidium iodide. The immunostaining was performed using an automated slide-processing system (Dako, AutostainerPlus). The staining was assessed by microscopical observation and image analysis.
# fibrillin-1 [3] = experiment: Modulation of fibrillin-1 synthesis in HDFa cell culture (sandwich ELISA); type: cell-based, human; conditions: 48 hours
# Protocol: Modulation of fibrilin-1 synthesis by Ac-SEQ ID NO: 3-NH2 peptide (synthesized in accordance with examples 1-3 and 5) was evaluated in vitro using HDFa.
# HDFa were seeded in 96-well plates at a density of 1×10^4 cells/well and they were put in contact with three non-cytotoxic concentrations of Ac-SEQ ID NO: 3-N H2 peptide: 0.01 mg/ml, 0.05 mg/ml and 0.1 mg/ml for 48 hours. Untreated cells were included as basal control. At the end of the monitored experiment, cell culture media were extracted from all wells and stored at −80° C. Modulation on fibrillin-1 levels was analyzed by means of sandwhich ELISA following manufacturer's instructions.
# Fibronectin 1 (FN1) = experiment: Gene expression modulation in HDFa (RTqPCR), FN1; type: cell-based, human; conditions: 0.1 mg/ml, 6 hours
# Protocol: as §1, §2, §3
# versican [4] = experiment: Modulation of versican synthesis in HDFa cell culture (sandwich ELISA); type: cell-based, human; conditions: 24 hours
# Protocol: The effect of Ac-SEQ ID NO: 3-NH2 peptide (synthesized in accordance with examples 1-3 and 5) on versican production was evaluated in vitro using human dermal fibroblasts (hereinafter, HDFa).
# Briefly, HDFa cells were seeded in 96-well plates at 1×10^4 cells/well in fibroblasts growth media and maintained for 24 hours at standard culture conditions (37° C., 95% humidity, 5% CO2). After the aforementioned incubation, medium was removed and new medium containing the non-cytotoxic concentrations of Ac-SEQ ID NO: 3-NH2 peptide of: 0.01 mg/ml, 0.05 mg/ml and 0.1 mg/ml was added and incubated for 24 hours. 0.1 μM retinoic acid was included as positive control for versican stimulation and untreated cells were included as basal control. Cell culture media and cell lysate were collected from all wells at the end of the experiment and stored at −80° C. Ex-novo synthesis of versican was measured by means of sandwich ELISA following manufacturer's instructions.
# Fibrillin-1 (FBN1) = experiment: Gene expression modulation in HDFa (RTqPCR), FBN1; type: cell-based, human; conditions: 0.05 mg/ml, 6 hours
# Protocol: as §1, §2, §3
# [5] = tested on: Metalloproteinase-3 (MMP3); experiment: Gene expression modulation in HDFa (RTqPCR), MMP3; type: cell-based, human; conditions: 0.1 mg/ml, 6 hours
# Protocol: as §1, §2, §3
# tropoelastin = experiment: Modulation of tropoelastin synthesis in HDFa cell culture (sandwich ELISA); type: cell-based, human; conditions: 24 hours
# Protocol: The potential effect of Ac-SEQ ID NO: 3-NH2 peptide (synthesized in accordance with examples 1-3 and 5) on tropoelastin synthesis was evaluated in vitro using HDFa.
# HDFa were put in culture at a density of 1×10^4 cells/well in 96-well plates and incubated for 24 hours with non-cytotoxic increasing concentrations of Ac-SEQ ID NO: 3-NH2 peptide (0.01 mg/ml, 0.05 mg/ml, 0.1 mg/ml and 0.5 mg/ml). Untreated cells were included as basal control. At the end of the monitored experimental time cell culture media and cell lysates were extracted from all wells and stored at −80° C. Ex-novo synthesis of tropoelastin was measured by means of sandwich ELISA following manufacturer's instructions.
# HDFa = experiment: Cytotoxicity of tested concentrations on HDFa; type: cell-based, human; conditions: 0.01, 0.05, 0.1 and 0.5 mg/ml
# hyaluronic acid = experiment: Modulation of hyaluronic acid synthesis in HDFa cell culture (competitive ELISA); type: cell-based, human; conditions: 48 hours
# Protocol: Modulation of Hyaluronic acid production by Ac-SEQ ID NO: 3-NH2 peptide (synthesized in accordance with examples 1-3 and 5) on HDFa was evaluated in vitro.
# Briefly, HDFa were seeded in 96-well plates at a density of 1×10^4 cells/well and, then, incubated with non-cytotoxic concentrations of Ac-SEQ ID NO: 3-NH2 peptide, this is 0.01 mg/ml, 0.05 mg/ml, 0.1 mg/ml and 0.5 mg/ml, for 48 hours. 0.1 μM retinoic acid was included as positive control and untreated cells were included as basal control. At the end of the experiment, cell culture media were extracted from all wells and stored at −80° C. Ex-novo synthesis of hyaluronic acid was measured by means of competitive ELISA following manufacturer's instructions.
# versican [6] = experiment: Modulation of versican synthesis on human skin explants (immunostaining); conditions: 0.005 mg/ml in cosmetic formulation, topical on days 0, 2, 4 and 7, explants collected day 9
# Protocol: The effect of Ac-SEQ ID NO: 3-NH2 peptide (synthesized in accordance with examples 1-3 and 5) on versican production was evaluated on human skin explants from a donor.
# Briefly, skin explants were obtained from a volunteer donor undergoing a plastic surgery procedure. Skin excess was donated for the present study. Skin explants were treated with a cosmetic formulation containing 1% (m/v) from a stock at 0.05% (m/v) of Ac-SEQ ID NO: 3-NH2 (effective final concentration of Ac-SEQ ID NO: 3-NH2, 0.005 mg/ml). On days 0, 2, 4 and 7, the tested product was topically applied on the basis of 2 μl per cm^2 of skin explant and spread using a small spatula.
# On day 9, 3 explants from each condition were collected and fixed in a buffered formalin solution. After fixation for 24 hours in buffered formalin, samples were dehydrated and impregnated and embedded in paraffin. 5-μm-thick sections were made using a Leica RM 2125 Minot-type microtome, and the sections were mounted on Superfrost® histological glass slides. The microscopical observations were performed using a Leica DMLB or Olympus BX43 microscope. Pictures were digitized with a numeric DP72 Olympus camera with CellD storing software.
# The immunostaining was performed using an automated slide-processing system (Dako, AutostainerPlus). The staining was assessed by microscopical observation and image analysis.
substance,measurement,setting,value
"Ac-ALHKVK-NH2 [Ac-SEQ ID NO: 3-NH2, Ac-Ala-Leu-His-Lys-Val-Lys-NH2]","MMP1 gene expression, fold change vs basal control",[1],−1.33
same,decrease in area of cheek deformation versus initial time,facial skin firmness,7%
same,decrease in depth of cheek deformation versus initial time,facial skin firmness,14.5%
same,decrease in volume of cheek deformation versus initial time,facial skin firmness,20%
same,"Versican gene expression, fold change vs basal control",Versican (VCAN),1.22
same,increase in skin surface occupied by fibrillin-1 protein compared to basal control,fibrillin-1 [2],24%
same,increase in fibrillin-1 synthesis compared to basal control,fibrillin-1 [3]; 0.01 mg/ml,18%
same,increase in fibrillin-1 synthesis compared to basal control,fibrillin-1 [3]; 0.05 mg/ml,30%
same,increase in fibrillin-1 synthesis compared to basal control,fibrillin-1 [3]; 0.10 mg/ml,41%
same,"Fibronectin 1 gene expression, fold change vs basal control",Fibronectin 1 (FN1),1.41
same,increase in versican synthesis compared to basal control,versican [4]; 0.01 mg/ml,24%
same,increase in versican synthesis compared to basal control,versican [4]; 0.05 mg/ml,35%
same,increase in versican synthesis compared to basal control,versican [4]; 0.10 mg/ml,62%
same,"Fibrillin 1 gene expression, fold change vs basal control",Fibrillin-1 (FBN1),1.55
same,"MMP3 gene expression, fold change vs basal control",[5],−1.20
same,increase in tropoelastin synthesis compared to basal control,tropoelastin; 0.01 mg/ml,3%
same,increase in tropoelastin synthesis compared to basal control,tropoelastin; 0.05 mg/ml,11%
same,increase in tropoelastin synthesis compared to basal control,tropoelastin; 0.10 mg/ml,20%
same,increase in tropoelastin synthesis compared to basal control,tropoelastin; 0.50 mg/ml,31%
same,cytotoxicity on HDFa,HDFa,non-cytotoxic
same,increase in hyaluronic acid production compared to basal control,hyaluronic acid; 0.01 mg/ml,3%
same,increase in hyaluronic acid production compared to basal control,hyaluronic acid; 0.05 mg/ml,8%
same,increase in hyaluronic acid production compared to basal control,hyaluronic acid; 0.1 mg/ml,10%
same,increase in hyaluronic acid production compared to basal control,hyaluronic acid; 0.5 mg/ml,18%
same,increase in skin surface occupied by versican protein compared to basal control,versican [6],29%
